{
  "source": "paper PMC6038183",
  "about": "(BMC Genomics, 2018)",
  "target": "OppA (main ectoATPase of M. hominis PG21) (Metamycoplasma hominis, UniProt D1J7T8)",
  "sequence (D1J7T8 entry or part of it)": "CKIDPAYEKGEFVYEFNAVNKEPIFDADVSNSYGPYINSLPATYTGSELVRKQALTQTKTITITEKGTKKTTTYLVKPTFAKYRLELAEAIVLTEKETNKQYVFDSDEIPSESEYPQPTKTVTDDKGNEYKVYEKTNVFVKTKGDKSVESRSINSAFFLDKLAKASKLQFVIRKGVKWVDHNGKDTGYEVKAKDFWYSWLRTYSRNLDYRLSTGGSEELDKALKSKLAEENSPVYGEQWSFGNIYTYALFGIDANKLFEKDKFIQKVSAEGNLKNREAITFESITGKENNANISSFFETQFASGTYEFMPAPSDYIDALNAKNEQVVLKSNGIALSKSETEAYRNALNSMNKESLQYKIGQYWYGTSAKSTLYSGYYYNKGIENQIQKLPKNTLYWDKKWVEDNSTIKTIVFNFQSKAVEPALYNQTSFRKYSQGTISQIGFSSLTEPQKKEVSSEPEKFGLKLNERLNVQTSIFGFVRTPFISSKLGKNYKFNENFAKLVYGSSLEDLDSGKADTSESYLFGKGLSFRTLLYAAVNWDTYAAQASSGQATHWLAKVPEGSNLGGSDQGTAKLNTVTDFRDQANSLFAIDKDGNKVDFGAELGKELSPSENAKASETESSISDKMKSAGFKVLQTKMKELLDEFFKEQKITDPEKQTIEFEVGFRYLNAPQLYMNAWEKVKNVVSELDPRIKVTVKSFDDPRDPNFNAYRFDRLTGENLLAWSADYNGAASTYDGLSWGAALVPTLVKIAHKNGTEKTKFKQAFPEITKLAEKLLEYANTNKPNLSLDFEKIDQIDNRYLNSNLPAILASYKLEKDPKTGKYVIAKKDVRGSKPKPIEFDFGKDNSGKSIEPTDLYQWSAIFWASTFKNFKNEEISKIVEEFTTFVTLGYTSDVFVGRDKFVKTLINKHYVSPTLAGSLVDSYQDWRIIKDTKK",
  "conditions": "intact cells of parental strain PG21 (whole-cell ectoATPase activity, other ATPases not excluded); pH 7.5, 37 °C, 4 h, 0-3 mM ATP",
  "data": [
    {"smiles": "Nc1ncnc2c1ncn2[C@@H]1O[C@H](COP(=O)(O)OP(=O)(O)OP(=O)(O)O)[C@@H](O)[C@H]1O", "note": "[ATP]", "values": [
      {"measurement": "Km", "value": "the parental PG21 strain were tested for ATPase activity"}
    ]}
  ]
}
